Test results from patent US20250043299A1, “POINT MUTATIONS THAT BOOST AROMATIC AMINO ACID PRODUCTION AND CO2 ASSIMILATION IN PLANTS” (Wisconsin Alumni Research Foundation, priority 2021, published 2025).

Tests used:
Type in all cases: biochemical
DHS2^WT = molecular target: T1, DHS2^WT (Arabidopsis thaliana, UniProt Q00218); assay: DHS enzyme assay, recombinant DHS2^WT; conditions: for effect on DHS2 activity (effector screening): FIG. 2D
T1 construct: without the predicted plastid transit peptide (amino acid residues; 49-525, 34-507, and 52-527, respectively); made in house; host or cells: E. coli Rosetta-2
Procedure: (§1) To generate recombinant DHS proteins the pET28a vectors carrying the A. thaliana DHS1 (AtDHS1), AtDHS2, or AtDHS3 WT sequence without the predicted plastid transit peptide (amino acid residues; 49-525, 34-507, and 52-527, respectively) were expressed in E. coli Rosetta-2 cells and purified using Ni-affinity chromatography, exactly as was conducted previously (9). To generate DHS proteins with individual sota mutations via site-directed mutagenesis, these pET28a plasmid templates were diluted by 500-fold, mixed with 0.04 U/μL Phusion DNA polymerase (Thermo Scientific), 0.2 mM deoxynucleoside triphosphates (dNTPs), 1× Phusion reaction buffer (Thermo Scientific), and 0.5 μM forward and reverse mutagenesis primers (Table 10). The PCR reaction was run using the following protocol: 98° C. for 30 s followed by 20 cycles of 10 s at 98° C., 20 s at 70° C., 4.5 min at 72° C. with a final extension at 72° C. for 10 min. The PCR products were purified using a QIAquick Gel Extraction Kit (QIAGEN), treated with FastDigest DpnI (Thermo Scientific) to digest methylated plasmid template DNA for 20 min at 37° C., and transformed into E. coli cells. The mutagenized pET28a plasmids were sequenced to confirm that no errors were introduced during the mutagenesis process.
(§2) The DHS enzyme assays were conducted using the colorimetric method that we recently described (9). Briefly, the enzyme solution (7.7 μl) containing 50 mM Hepes (pH 7.4) was preincubated with an effector molecule(s) at room temperature for 15 min. For assays using recombinant protein and enzyme fractions isolated from plant leaves, 0.01 to 0.1 μg and approximately 50 μg of proteins were used, respectively. After adding 0.5 μl of 0.1 M dithiothreitol, the samples were further incubated at room temperature for 15 min. During these incubations, the substrate solution containing 50 mM Hepes (pH 7.4), 2 mM MnCl2, 4 mM E4P, and 4 mM PEP at final concentration was preheated at 37° C. The enzyme reaction was started by adding 6.8 μl of the substrate solution, then incubated at 37° C. for 30 min, and terminated by adding 30 μl of 0.6 M trichloroacetic acid. After a brief centrifugation, 5 μl of 200 mM NaIO4 (sodium meta-periodate) in 9 N H3PO4 was added to oxidize the enzymatic product and to incubate at 25° C. for 20 min. To stop the oxidation reaction, 20 μl of 0.75 M NaAsO2 (sodium arsenite), which was dissolved in 0.5 M Na2SO4 and 0.05 M H2SO4, was added and immediately mixed. After 5 min of incubation at room temperature, one-third of the sample solution was transferred to a new tube to be mixed with 50 μl of 40 mM thiobarbituric acid and incubated at 99° C. for 15 min in a thermal cycler. The mixture was added to 600 μl of cyclohexanone in eight-strip solvent-resistant plastic tubes, mixed vigorously, and centrifuged at 4500 g for 3 min to separate water- and cyclohexanone-based layers for the extraction off the developed pink chromophore. The absorbance of the pink supernatant was read at 549 nm with the microplate reader (Infinite 200 PRO, TECAN) to calculate DAHP production with the molar extinction coefficient at 549 nm (ε=549 nm) of 4.5×10^4 M^−1 cm^−1. Reaction mixtures with boiled enzymes were run in parallel and used as negative controls to estimate the background signal.

[1] = molecular target: T2, Arabidopsis thaliana DHS1 (AtDHS1), wild type (DHS1^WT), SEQ ID NO:1 (Arabidopsis thaliana, UniProt P29976); assay: DHS enzyme assay with effector, Arabidopsis DHS1 WT; conditions: effector screening (FIG. 2D)
T2 construct: without the predicted plastid transit peptide (amino acid residues; 49-525, 34-507, and 52-527, respectively); made in house; host or cells: E. coli Rosetta-2
Procedure: as §1, with “To” for “To generate recombinant DHS proteins the pET28a vectors carrying the A. thaliana DHS1 (AtDHS1), AtDHS2, or AtDHS3 WT sequence without the predicted plastid transit peptide (amino acid residues; 49-525, 34-507, and 52-527, respectively) were expressed in E. coli Rosetta-2 cells and purified using Ni-affinity chromatography, exactly as was conducted previously (9). To”
The DHS enzyme assays were conducted using the colorimetric method that we recently described (9). Briefly, the enzyme solution (7.7 μl) containing 50 mM Hepes (pH 7.4) was preincubated with an effector molecule(s) at room temperature for 15 min. For assays using recombinant protein and enzyme fractions isolated from plant leaves, 0.01 to 0.1 μg and approximately 50 μg of proteins were used, respectively. After adding 0.5 μl of 0.1 M dithiothreitol, the samples were further incubated at room temperature for 15 min. During these incubations, the substrate solution containing 50 mM Hepes (pH 7.4), 2 mM MnCl2, 4 mM E4P, and 4 mM PEP at final concentration was preheated at 37° C. The enzyme reaction was started by adding 6.8 μl of the substrate solution, then incubated at 37° C. for 30 min, and terminated by adding 30 μl of 0.6 M trichloroacetic acid. After a brief centrifugation, 5 μl of 200 mM NaIO4 (sodium meta-periodate) in 9 N H3PO4 was added to oxidize the enzymatic product and to incubate at 25° C. for 20 min. To stop the oxidation reaction, 20 μl of 0.75 M NaAsO2 (sodium arsenite), which was dissolved in 0.5 M Na2SO4 and 0.05 M H2SO4, was added and immediately mixed. […]

DHS1^WT = molecular target: T3, DHS1^WT (Arabidopsis thaliana, UniProt P29976); assay: DHS enzyme assay (colorimetric), recombinant DHS1^WT; conditions: for effect on DHS1 activity (effector screening): FIG. 2D
T3 construct: without the predicted plastid transit peptide (amino acid residues; 49-525, 34-507, and 52-527, respectively); made in house; host or cells: E. coli Rosetta-2
Procedure: as §1, §2

DHS1^B4 = molecular target: T4, DHS1^B4 (Arabidopsis thaliana, UniProt P29976, G244R); assay: DHS enzyme assay, recombinant DHS1^B4
T4 construct: without the predicted plastid transit peptide (amino acid residues; 49-525, 34-507, and 52-527, respectively); made in house; host or cells: E. coli
Procedure: as §1, §2

T3 sequence (P29976 49-525): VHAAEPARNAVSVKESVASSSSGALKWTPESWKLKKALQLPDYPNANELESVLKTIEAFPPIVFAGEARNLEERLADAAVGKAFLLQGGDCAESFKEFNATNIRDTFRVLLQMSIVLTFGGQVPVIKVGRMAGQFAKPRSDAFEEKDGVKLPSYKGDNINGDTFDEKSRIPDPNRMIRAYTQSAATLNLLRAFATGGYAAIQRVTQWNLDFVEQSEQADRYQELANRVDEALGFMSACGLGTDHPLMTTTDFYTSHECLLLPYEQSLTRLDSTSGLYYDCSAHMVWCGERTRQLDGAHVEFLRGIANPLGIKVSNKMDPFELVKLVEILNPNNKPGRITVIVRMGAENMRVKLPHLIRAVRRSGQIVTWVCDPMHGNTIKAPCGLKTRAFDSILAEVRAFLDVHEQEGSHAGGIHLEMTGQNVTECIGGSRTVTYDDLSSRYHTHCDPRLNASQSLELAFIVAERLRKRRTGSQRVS
T1 sequence (Q00218 34-507): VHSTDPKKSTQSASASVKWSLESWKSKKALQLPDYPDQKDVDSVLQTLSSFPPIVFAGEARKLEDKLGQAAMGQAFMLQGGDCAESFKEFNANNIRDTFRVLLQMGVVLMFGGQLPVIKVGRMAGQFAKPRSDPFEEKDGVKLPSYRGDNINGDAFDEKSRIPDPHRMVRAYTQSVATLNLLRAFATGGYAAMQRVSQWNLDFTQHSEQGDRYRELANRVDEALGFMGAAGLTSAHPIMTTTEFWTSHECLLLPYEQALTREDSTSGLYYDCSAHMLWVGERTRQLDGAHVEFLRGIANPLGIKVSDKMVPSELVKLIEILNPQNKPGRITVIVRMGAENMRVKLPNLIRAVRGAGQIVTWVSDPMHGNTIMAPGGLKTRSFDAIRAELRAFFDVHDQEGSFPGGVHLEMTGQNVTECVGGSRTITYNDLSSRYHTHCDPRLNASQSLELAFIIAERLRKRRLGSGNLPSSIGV
T2 sequence (P29976 49-525): as the sequence (P29976 49-525) above
T4 sequence (P29976 49-525 G244R): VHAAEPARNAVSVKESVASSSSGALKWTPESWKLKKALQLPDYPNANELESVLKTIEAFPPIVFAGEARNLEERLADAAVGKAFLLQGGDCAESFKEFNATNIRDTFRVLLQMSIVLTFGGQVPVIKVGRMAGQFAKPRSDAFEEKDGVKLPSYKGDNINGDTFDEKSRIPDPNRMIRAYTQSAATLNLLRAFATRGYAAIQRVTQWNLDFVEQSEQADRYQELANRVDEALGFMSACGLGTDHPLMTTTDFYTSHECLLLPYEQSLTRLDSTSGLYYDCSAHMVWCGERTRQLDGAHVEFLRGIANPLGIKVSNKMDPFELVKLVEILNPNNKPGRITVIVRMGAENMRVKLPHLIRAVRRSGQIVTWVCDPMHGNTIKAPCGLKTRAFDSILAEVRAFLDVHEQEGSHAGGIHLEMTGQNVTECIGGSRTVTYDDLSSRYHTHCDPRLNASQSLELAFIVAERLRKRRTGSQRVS

Structure (SMILES)	inhibition of DHS1^WT activity [1]	effect on DHS1 activity (effector screening) (DHS1^WT)	effect on DHS2 activity (effector screening) (DHS2^WT)	also measured
OCCc1ccc(O)cc1 [Tyrosol]	–	–	–	inhibition at 1000 µM (DHS2^WT; effector at 1 mM): ~30%
c1ccc2[nH]ccc2c1 [indole]	did not affect the activity of DHS1	–	–	–
O=C(O)CCc1c[nH]c2ccccc12 [Indole-3-propionic acid]	–	–	–	IC50 (DHS1^WT): 2060 µM; IC50 (DHS1^B4): 2000 µM
NCCc1c[nH]c2ccccc12 [tryptamine]	did not affect the activity of DHS1	did not affect the activity	slight reduction	–
Nc1ccccc1C(=O)[O-].[Na+] [Anthranilate]	–	did not affect the activity	slight reduction	–
O=C(O)Cc1c[nH]c2ccccc12 [IAA, indole-3-acetate]	–	inhibit	inhibit	–
